Data taken from ChEMBL document CHEMBL5329195, “Identification of novel glucocerebrosidase chaperones by unexpected skeletal rearrangement reaction” (Bioorg Med Chem Lett, 2023).
Active and inactive are the calls of the source. No cut-off for these calls is given here.

Columns and labels:
[1] = biological target: T1, Lysosomal acid glucosylceramidase (Homo sapiens, UniProt P04062, N409S); assay: Chaperone activity at GCase N370S GBA mutant in patient derived fibroblast cells using 4-methylumbelliferyl-beta-D-glucopyranoside as substrate incubated for 5 days by fluorescence based analysis; assay type: cell-based
[2] = test system: T2, Lysosomal acid glucosylceramidase (Homo sapiens), P04062 [N409S]; assay: Chaperone activity at GCase N370S GBA mutant in patient derived fibroblast cells using 4-methylumbelliferyl-beta-D-glucopyranoside as substrate incubated for 5 days by fluorescence based analysis relative to control; assay type: cell-based; conditions: time 5.0 day
T2 sequence (whole entry): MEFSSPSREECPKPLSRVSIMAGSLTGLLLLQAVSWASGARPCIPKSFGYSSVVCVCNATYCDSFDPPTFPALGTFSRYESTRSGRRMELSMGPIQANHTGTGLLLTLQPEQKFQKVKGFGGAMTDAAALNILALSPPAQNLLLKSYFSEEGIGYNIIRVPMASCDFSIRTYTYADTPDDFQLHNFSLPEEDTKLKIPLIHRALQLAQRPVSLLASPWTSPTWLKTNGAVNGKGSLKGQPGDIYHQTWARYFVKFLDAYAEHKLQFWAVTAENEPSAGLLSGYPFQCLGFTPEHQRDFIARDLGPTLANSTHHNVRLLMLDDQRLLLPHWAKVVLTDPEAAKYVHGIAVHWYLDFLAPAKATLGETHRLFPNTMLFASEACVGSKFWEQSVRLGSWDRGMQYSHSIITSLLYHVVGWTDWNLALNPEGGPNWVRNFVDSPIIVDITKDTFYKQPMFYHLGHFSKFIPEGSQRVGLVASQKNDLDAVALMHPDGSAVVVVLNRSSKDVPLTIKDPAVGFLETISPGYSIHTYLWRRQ

[3] = test system: T2, Lysosomal acid glucosylceramidase (Homo sapiens), P04062 [N409S]; assay: Inhibition of GCase N370S GBA mutant in patient derived fibroblast cells using 4-methylumbelliferyl-beta-D-glucopyranoside as substrate incubated for 5 days by fluorescence based analysis relative to control; assay type: cell-based; conditions: time 5.0 day
[4] = biological target: T1, Lysosomal acid glucosylceramidase; assay: Inhibition of GCase N370S GBA mutant in patient derived fibroblast cells using 4-methylumbelliferyl-beta-D-glucopyranoside as substrate incubated for 5 days by fluorescence based analysis; assay type: cell-based
[5] = Stability of the compound in human liver microsomes assessed as intrinsic clearance; assay type: ADME, Microsome; conditions: read-out: CLH
[6] = Stability of the compound in mouse liver microsomes assessed as intrinsic clearance; assay type: ADME, Microsome; conditions: read-out: CLH
[7] = Solubility of the compound at pH 7.4; assay type: physicochemical; conditions: buffer
[8] = Solubility of the compound at pH 1.2; assay type: physicochemical; conditions: buffer
[9] = biological target: Voltage-gated inwardly rectifying potassium channel KCNH2 (Homo sapiens, UniProt Q12809); assay: Inhibition of human ERG; assay type: toxicity
Chain of Voltage-gated inwardly rectifying potassium channel KCNH2 (Q12809 whole entry): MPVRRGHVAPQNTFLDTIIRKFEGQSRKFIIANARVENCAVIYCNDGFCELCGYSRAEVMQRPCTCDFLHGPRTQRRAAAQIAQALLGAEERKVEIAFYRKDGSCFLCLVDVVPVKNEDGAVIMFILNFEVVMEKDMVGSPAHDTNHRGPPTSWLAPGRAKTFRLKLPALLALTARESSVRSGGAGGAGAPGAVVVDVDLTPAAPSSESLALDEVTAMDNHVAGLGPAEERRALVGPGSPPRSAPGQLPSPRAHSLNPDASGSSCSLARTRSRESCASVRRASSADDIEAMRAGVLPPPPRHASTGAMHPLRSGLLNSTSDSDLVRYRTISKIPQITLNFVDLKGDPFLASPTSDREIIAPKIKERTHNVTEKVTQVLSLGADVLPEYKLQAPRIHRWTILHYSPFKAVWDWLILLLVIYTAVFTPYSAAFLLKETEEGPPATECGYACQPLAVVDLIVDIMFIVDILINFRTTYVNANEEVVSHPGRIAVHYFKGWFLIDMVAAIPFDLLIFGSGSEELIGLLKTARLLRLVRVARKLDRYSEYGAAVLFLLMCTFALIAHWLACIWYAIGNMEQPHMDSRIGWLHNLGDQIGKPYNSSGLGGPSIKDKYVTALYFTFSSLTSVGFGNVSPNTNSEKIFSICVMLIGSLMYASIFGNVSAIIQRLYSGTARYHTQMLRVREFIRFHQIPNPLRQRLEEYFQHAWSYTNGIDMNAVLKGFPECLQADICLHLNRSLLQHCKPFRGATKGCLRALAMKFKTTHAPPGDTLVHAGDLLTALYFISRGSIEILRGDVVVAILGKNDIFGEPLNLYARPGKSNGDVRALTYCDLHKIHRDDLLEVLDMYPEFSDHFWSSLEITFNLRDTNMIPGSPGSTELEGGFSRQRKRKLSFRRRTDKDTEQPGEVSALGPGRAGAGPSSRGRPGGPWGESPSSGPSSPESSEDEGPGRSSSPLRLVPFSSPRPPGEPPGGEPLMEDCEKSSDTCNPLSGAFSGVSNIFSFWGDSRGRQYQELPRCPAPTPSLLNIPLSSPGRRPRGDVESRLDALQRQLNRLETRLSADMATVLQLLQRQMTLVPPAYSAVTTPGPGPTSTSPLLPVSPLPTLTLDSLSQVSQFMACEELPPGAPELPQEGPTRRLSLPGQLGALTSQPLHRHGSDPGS

| SMILES | EC50 ([1]; read-out: EC50) [nM] | Emax [2] | further results |
| --- | --- | --- | --- |
| CCc1n[nH]c2c1[C@@H](O)[C@H](n1nnc3ccccc31)[C@@H](c1ccccc1Cl)N2 (racemic) | 480 | 191% |  |
| Cc1n[nH]c2c1[C@@H](O)[C@H](n1nnc3ccccc31)[C@@H](c1cccc(F)c1Cl)N2 (racemic) | 110 | 148% |  |
| Cc1n[nH]c2c1[C@H](O)[C@@H](n1nnc3ccccc31)[C@H](c1ccccc1Cl)N2 |  | inactive | Emax [3]: inactive; EC50 ([1]; fibroblast): Not Active; IC50 ([4]; fibroblast): Not Active |
| Cc1n[nH]c2c1[C@@H](O)[C@H](n1nnc3ccccc31)[C@@H](c1cc(Cl)ccc1Cl)N2 (racemic) | 720 | 145% |  |
| Cc1n[nH]c2c1[C@@H](O)[C@H](n1nnc3ccccc31)[C@@H](C1CCCCCC1)N2 (racemic) | 230 | 170% |  |
| O[C@@H]1c2ccncc2N[C@H](c2ccccc2Cl)[C@H]1n1nnc2ccccc21 (racemic) | 570 | 151% | Emax [3]: 99%; IC50 ([4]; read-out: IC50): 1800 nM |
| O[C@@H]1c2ccccc2N[C@H](c2ccccc2)[C@H]1n1nnc2ccccc21 (racemic) |  | inactive | EC50 ([1]; fibroblast): Not Active |
| Cc1ccc([C@H]2Nc3[nH]nc(C)c3[C@@H](O)[C@@H]2n2nnc3ccccc32)cc1 (racemic) | 1100 | 157% |  |
| Cc1n[nH]c2c1[C@H](O)[C@@H](n1nnc3ccccc31)[C@H](c1ccccc1)N2 |  | inactive | Emax [3]: inactive; EC50 ([1]; fibroblast): Not Active; IC50 ([4]; fibroblast): Not Active |
| Cc1n[nH]c2c1[C@@H](O)[C@H](n1nnc3ccccc31)[C@@H](c1cccc(F)c1)N2 (racemic) | 1200 | 137% |  |
| COc1ccccc1[C@H]1Nc2[nH]nc(C)c2[C@@H](O)[C@@H]1n1nnc2ccccc21 (racemic) | 3300 | 145% |  |
| Cc1n[nH]c2c1[C@@H](O)[C@H](n1nnc3ccccc31)[C@@H](c1ccccc1Br)N2 [listing 1 of 2 here] | 86 |  | microsomal CLint [5]: 22.7 µL/min/mg; microsomal CLint [6]: 31.4 µL/min/mg; solubility [7]: > 100 µM; solubility [8]: > 100 µM; IC50 ([4]; read-out: IC50): 330 nM; IC50 [9]: > 25000 nM |
| Cc1n[nH]c2c1[C@@H](O)[C@H](n1nnc3ccccc31)[C@@H](c1ccccc1)N2 (racemic) [listing 1 of 2 here] | 1400 |  |  |
| COCc1n[nH]c2c1[C@@H](O)[C@H](n1nnc3ccccc31)[C@@H](c1ccccc1)N2 (racemic) |  | inactive | EC50 ([1]; fibroblast): Not Active |
| Cc1n[nH]c2c1[C@H](O)[C@@H](n1nnc3ccccc31)[C@H](c1ccccc1Br)N2 |  | inactive | EC50 ([1]; fibroblast): Not Active |
| Cc1n[nH]c2c1[C@@H](O)[C@H](n1nnc3ccccc31)[C@@H](C1CC1)N2 (racemic) |  | inactive | EC50 ([1]; fibroblast): Not Active |
| Cc1n[nH]c2c1[C@@H](O)[C@H](n1nnc3ccccc31)[C@@H](c1ccccc1Cl)N2 (racemic) [listing 1 of 2 here] | 140 |  |  |
| O[C@@H]1c2cnccc2N[C@H](c2ccccc2Cl)[C@H]1n1nnc2ccccc21 (racemic) | > 16000 | > 239% |  |
| Cc1n[nH]c2c1[C@@H](O)[C@H](n1nnc3ccccc31)[C@@H](C1CCCCC1)N2 (racemic) | 370 | 180% | Emax [3]: 102%; IC50 ([4]; read-out: IC50): 650 nM |
| Cc1n[nH]c2c1[C@@H](O)[C@H](n1nnc3ccccc31)[C@@H](C1CCCC1)N2 (racemic) | 1900 | 150% |  |
| CC(C)(C)c1n[nH]c2c1[C@@H](O)[C@H](n1nnc3ccccc31)[C@@H](c1ccccc1Cl)N2 (racemic) | 7400 | 132% |  |
| Cc1n[nH]c2c1[C@@H](O)[C@H](n1nnc3ccccc31)[C@@H](c1cccc(Cl)c1Cl)N2 (racemic) | 140 | 140% |  |

| SMILES | EC50 ([1]; read-out: EC50) [nM] | Emax [2] | further results |
| --- | --- | --- | --- |
| Cc1n[nH]c2c1[C@@H](O)[C@H](n1nnc3ccccc31)[C@@H](C1CCOCC1)N2 (racemic) | > 16000 | > 65% |  |
| Cc1n[nH]c2c1[C@@H](O)[C@H](n1nnc3ccccc31)[C@@H](c1ccccc1)N2 [listing 1 of 2 here] |  | 137% | Emax [3]: 95% |
| Cc1cccc([C@H]2Nc3[nH]nc(C)c3[C@@H](O)[C@@H]2n2nnc3ccccc32)c1 (racemic) | 1100 | 158% |  |
| O[C@@H]1c2c(C3CC3)n[nH]c2N[C@H](c2ccccc2Cl)[C@H]1n1nnc2ccccc21 (racemic) | 83 | 172% | Emax [3]: 95%; IC50 ([4]; read-out: IC50): 74 nM |
| Cc1n[nH]c2c1[C@@H](O)[C@H](n1nnc3ccccc31)[C@@H](c1ccccc1F)N2 (racemic) | 970 | 137% | Emax [3]: 103%; IC50 ([4]; read-out: IC50): 1800 nM |
| Cc1n[nH]c2c1[C@@H](O)[C@H](n1nnc3ccccc31)[C@@H](c1ccccc1Cl)N2 |  | 163% | Emax [3]: 85% |
| Cc1n[nH]c2c1[C@@H](O)[C@H](n1nnc3ccccc31)[C@@H](c1ccccc1Br)N2 [listing 2 of 2 here] |  | 170% | Emax [3]: 101% |
| Cc1n[nH]c2c1[C@@H](O)[C@H](n1nnc3ccccc31)[C@@H](c1ccccc1)N2 (racemic) [listing 2 of 2 here] |  | 173% |  |
| Cc1cccc([C@H]2Nc3[nH]nc(C)c3[C@@H](O)[C@@H]2n2nnc3ccccc32)c1Cl (racemic) | 150 | 147% |  |
| Cc1n[nH]c2c1[C@@H](O)[C@H](n1nnc3ccccc31)[C@@H](c1ccccc1Cl)N2 (racemic) [listing 2 of 2 here] |  | 160% |  |
| Cc1n[nH]c2c1[C@@H](O)[C@H](n1nnc3ccccc31)[C@@H](c1ccc(F)cc1)N2 (racemic) | 2200 | 61% |  |
| Cc1n[nH]c2c1[C@@H](O)[C@H](n1nnc3ccccc31)[C@@H](c1ccccc1Br)N2 (racemic) [listing 1 of 2 here] | 200 |  |  |
| Cc1n[nH]c2c1[C@@H](O)[C@H](n1nnc3ccccc31)[C@@H](c1ccccc1C(F)(F)F)N2 (racemic) | 470 | 160% | Emax [3]: 103%; IC50 ([4]; read-out: IC50): 1100 nM |
| Cc1n[nH]c2c1[C@@H](O)[C@H](n1nnc3ccccc31)[C@@H](c1ccccc1)N2 [listing 2 of 2 here] | 1100 |  | microsomal CLint [5]: 5.01 µL/min/mg; microsomal CLint [6]: 9.88 µL/min/mg; solubility [7]: > 100 µM; solubility [8]: > 100 µM; IC50 ([4]; read-out: IC50): 3200 nM |
| O[C@@H]1c2c(-c3ccccc3)n[nH]c2N[C@H](c2ccccc2Cl)[C@H]1n1nnc2ccccc21 (racemic) |  | inactive | EC50 ([1]; fibroblast): Not Active |
| O[C@@H]1c2c(C3CCCC3)n[nH]c2N[C@H](c2ccccc2)[C@H]1n1nnc2ccccc21 (racemic) |  | inactive | EC50 ([1]; fibroblast): Not Active |
| O[C@@H]1c2cn[nH]c2N[C@H](c2ccccc2)[C@H]1n1nnc2ccccc21 (racemic) | > 16000 | > 40% |  |
| Cc1n[nH]c2c1[C@@H](O)[C@H](n1nnc3ccccc31)[C@@H](c1ccccc1Br)N2 (racemic) [listing 2 of 2 here] |  | 164% |  |
| Cc1ccccc1[C@H]1Nc2[nH]nc(C)c2[C@@H](O)[C@@H]1n1nnc2ccccc21 (racemic) | 1900 | 158% | Emax [3]: 97%; IC50 ([4]; read-out: IC50): 4600 nM |
| OC[C@H]1CNC[C@@H](O)[C@@H]1O |  | 103% | Emax [3]: 103% |
| Cc1n[nH]c2c1[C@@H](O)[C@H](n1nnc3ccccc31)[C@@H](C)N2 (racemic) |  | inactive | EC50 ([1]; fibroblast): Not Active |
| Cc1n[nH]c2c1[C@@H](O)[C@H](n1nnc3ccccc31)[C@@H](c1ccc(Cl)cc1Cl)N2 (racemic) | 740 | 150% |  |
